{"source": "ChEMBL document CHEMBL5465560", "about": "“Selectivity Literature for EUbOPEN Chemogenomic Library” (2024)", "key": {"[1]": {"target": "Dual specificity tyrosine-phosphorylation-regulated kinase 1B (Homo sapiens, UniProt Q9Y463)", "sequence (Q9Y463 whole entry, looked up)": "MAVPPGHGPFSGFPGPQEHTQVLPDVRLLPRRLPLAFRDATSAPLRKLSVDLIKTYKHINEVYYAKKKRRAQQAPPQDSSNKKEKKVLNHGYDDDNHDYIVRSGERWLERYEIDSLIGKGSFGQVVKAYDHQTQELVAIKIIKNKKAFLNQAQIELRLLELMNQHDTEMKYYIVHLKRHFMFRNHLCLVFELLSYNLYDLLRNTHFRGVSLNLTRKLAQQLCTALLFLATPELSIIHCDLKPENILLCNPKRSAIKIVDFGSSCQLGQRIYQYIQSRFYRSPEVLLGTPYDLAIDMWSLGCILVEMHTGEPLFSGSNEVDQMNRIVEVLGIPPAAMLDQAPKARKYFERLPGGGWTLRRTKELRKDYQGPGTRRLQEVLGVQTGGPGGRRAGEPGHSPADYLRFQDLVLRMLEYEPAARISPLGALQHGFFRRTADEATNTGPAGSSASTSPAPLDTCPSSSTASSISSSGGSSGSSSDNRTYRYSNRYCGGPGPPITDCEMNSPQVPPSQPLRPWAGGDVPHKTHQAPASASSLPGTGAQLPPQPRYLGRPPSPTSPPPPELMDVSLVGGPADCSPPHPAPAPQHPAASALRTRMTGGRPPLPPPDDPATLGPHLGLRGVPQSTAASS", "test": "Selectivity interaction (KinomeScan (DiscoverX)) EUB0000229b DYRK1B", "settings": "at 10 µM"}, "[2]": {"target": "Tyrosine-protein kinase receptor Tie-1 (Homo sapiens) (UniProt P35590)", "sequence (P35590 whole entry)": "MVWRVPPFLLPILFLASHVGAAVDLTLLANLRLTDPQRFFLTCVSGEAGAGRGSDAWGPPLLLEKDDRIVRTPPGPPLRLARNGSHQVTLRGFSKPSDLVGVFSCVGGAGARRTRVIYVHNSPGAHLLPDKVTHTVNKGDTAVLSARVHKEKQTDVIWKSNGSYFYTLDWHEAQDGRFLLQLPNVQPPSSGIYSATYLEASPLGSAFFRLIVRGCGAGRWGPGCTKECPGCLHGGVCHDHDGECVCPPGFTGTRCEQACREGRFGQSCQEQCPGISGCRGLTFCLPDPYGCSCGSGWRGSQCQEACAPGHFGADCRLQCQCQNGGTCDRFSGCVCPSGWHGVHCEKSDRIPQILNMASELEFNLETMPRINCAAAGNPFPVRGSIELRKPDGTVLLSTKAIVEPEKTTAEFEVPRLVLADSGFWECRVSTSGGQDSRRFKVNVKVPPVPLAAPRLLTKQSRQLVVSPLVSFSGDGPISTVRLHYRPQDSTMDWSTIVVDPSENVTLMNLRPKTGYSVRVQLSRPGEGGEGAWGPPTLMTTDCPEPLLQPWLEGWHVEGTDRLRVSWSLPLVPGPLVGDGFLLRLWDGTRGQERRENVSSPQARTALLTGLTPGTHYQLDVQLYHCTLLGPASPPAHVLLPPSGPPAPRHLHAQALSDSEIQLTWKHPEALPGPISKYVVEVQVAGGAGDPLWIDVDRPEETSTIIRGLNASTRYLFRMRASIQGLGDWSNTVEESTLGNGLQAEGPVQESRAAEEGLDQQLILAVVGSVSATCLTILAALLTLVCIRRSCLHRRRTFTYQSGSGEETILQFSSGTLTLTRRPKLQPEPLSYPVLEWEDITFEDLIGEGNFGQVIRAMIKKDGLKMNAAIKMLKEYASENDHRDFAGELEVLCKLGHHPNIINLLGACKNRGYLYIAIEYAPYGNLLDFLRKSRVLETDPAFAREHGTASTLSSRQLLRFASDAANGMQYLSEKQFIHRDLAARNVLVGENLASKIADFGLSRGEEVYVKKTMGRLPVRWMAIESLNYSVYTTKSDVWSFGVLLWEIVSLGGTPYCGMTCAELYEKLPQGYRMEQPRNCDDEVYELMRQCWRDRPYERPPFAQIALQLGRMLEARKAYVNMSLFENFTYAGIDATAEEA", "test": "Selectivity interaction (KinomeScan (DiscoverX)) EUB0000092b TIE1", "settings": "at 10 µM"}, "[3]": {"target": "T1, Ephrin type-A receptor 8 (Homo sapiens) (UniProt P29322)", "T1 sequence (whole entry)": "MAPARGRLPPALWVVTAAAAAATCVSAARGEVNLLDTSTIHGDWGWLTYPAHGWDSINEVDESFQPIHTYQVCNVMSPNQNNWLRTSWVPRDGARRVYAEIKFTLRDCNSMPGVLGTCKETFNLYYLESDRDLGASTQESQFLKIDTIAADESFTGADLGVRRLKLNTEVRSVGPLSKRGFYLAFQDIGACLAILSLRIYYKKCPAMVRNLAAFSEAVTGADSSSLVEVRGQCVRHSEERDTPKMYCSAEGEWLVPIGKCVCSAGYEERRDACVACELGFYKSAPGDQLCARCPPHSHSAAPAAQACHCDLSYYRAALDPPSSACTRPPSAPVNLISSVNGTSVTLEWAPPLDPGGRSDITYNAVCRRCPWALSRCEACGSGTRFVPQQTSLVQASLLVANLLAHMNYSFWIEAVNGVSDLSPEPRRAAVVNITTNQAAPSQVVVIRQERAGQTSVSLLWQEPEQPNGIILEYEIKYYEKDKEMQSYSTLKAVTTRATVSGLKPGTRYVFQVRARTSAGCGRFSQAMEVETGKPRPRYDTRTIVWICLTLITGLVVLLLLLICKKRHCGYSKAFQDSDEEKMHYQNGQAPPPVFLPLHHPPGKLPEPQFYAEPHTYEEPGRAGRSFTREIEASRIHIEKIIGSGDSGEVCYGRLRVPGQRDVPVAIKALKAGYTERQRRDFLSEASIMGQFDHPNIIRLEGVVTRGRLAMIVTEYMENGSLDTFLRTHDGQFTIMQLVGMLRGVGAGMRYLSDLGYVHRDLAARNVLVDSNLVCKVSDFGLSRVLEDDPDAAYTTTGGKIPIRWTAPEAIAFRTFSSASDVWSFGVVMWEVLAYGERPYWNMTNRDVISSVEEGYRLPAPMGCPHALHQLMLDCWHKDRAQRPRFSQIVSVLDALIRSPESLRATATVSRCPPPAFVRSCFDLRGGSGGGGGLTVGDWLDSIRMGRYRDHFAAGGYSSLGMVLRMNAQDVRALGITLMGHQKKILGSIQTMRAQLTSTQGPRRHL", "test": "Selectivity interaction (KinomeScan (DiscoverX)) EUB0000607a EPHA8", "settings": "at 10 µM"}, "[4]": {"target": "T2, Phosphatidylinositol 3-kinase C2 domain-containing subunit gamma (Homo sapiens) (UniProt O75747)", "T2 sequence (whole entry)": "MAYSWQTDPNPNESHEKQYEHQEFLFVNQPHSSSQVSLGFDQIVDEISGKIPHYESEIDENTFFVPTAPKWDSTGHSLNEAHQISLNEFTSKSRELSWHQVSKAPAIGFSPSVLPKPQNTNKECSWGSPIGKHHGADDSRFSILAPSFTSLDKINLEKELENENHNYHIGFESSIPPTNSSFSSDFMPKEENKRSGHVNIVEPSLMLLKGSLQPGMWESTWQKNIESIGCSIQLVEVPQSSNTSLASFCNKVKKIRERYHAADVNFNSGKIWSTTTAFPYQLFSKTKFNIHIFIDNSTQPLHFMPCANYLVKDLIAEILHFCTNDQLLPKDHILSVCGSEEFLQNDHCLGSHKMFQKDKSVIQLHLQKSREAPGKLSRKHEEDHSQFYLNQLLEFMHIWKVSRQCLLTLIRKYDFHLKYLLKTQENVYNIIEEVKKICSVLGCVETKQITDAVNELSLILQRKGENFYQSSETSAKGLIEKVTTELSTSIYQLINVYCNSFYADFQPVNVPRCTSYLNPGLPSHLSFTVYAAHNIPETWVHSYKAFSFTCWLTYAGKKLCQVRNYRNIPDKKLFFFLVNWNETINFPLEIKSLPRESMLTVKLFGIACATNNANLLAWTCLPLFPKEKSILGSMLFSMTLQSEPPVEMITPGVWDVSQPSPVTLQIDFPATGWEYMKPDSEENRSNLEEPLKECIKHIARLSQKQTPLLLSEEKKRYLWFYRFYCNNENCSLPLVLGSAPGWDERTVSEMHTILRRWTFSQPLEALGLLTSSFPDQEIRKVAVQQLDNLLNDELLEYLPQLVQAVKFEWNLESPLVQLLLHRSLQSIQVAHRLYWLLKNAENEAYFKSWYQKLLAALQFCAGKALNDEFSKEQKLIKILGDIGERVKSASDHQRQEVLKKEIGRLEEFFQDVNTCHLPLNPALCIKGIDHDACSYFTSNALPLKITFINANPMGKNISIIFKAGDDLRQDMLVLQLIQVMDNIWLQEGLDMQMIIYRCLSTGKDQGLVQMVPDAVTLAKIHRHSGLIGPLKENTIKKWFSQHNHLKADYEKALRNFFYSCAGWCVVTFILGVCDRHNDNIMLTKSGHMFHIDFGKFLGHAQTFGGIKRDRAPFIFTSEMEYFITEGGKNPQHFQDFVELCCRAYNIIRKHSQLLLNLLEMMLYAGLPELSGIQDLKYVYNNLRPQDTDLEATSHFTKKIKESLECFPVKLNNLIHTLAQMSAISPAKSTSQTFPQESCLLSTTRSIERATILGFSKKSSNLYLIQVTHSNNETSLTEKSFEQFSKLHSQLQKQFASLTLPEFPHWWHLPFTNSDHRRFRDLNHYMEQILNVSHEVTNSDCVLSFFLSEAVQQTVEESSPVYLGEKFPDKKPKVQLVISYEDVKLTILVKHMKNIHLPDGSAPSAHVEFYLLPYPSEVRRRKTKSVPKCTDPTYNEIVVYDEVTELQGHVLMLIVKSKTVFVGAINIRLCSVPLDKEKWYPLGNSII", "test": "Selectivity interaction (KinomeScan (DiscoverX)) EUB0001049a PIK3C2G", "settings": "at 1 µM"}}}
{"smiles": "COc1cc(N(C)c2ccnc3ccc(C(F)(F)F)cc23)cc(OC)c1OC", "values": [{"measurement": "% binding", "setting": "[1]", "result": 77, "unit": "%"}]}
{"smiles": "CCC(=O)N1CCN(c2ccc(-n3c(=O)ccc4cnc5ccc(-c6cnc7ccccc7c6)cc5c43)cc2C(F)(F)F)CC1", "values": [{"measurement": "% of control", "setting": "[2]", "result": 100, "unit": "%"}]}
{"smiles": "CNC(=O)Nc1ccc(-c2nc(N3CC4CCC(C3)O4)c3cnn(C4CCC5(CC4)OCCO5)c3n2)cc1", "values": [{"measurement": "% of control", "setting": "[3]", "result": 81, "unit": "%"}]}
{"smiles": "COc1cc(Nc2nc(C)cc(-c3cnn4nc(OC)ccc34)n2)cc(C(F)(F)F)c1", "values": [{"measurement": "% of control", "setting": "[4]", "result": 89, "unit": "%"}]}
